Key:
Test in all cases: relative viability (nuclei count vs DMSO), 5 days (fraction); higher = more cells survive
MK-2206 + Lapatinib = compound: NC1(c2ccc(-c3nc4ccn5c(=O)[nH]nc5c4cc3-c3ccccc3)cc2)CCC1 [MK-2206] + CS(=O)(=O)CCNCc1ccc(-c2ccc3ncnc(Nc4ccc(OCc5cccc(F)c5)c(Cl)c4)c3c2)o1 [Lapatinib] (partner 2 µM)
In short: (§1)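 Lung cancer cell lines in 1536-well plates got either a single drug or a fixed anchor-drug dose together with five library-drug doses (not always all listed) in √10 steps, by pin tool, on the day after seeding. Nuclei were counted after 5 days, and relative viability is the treated-to-vehicle ratio of nuclei counts. Values are medians of duplicate plates.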

MK-2206 + Bortezomib = compound: NC1(c2ccc(-c3nc4ccn5c(=O)[nH]nc5c4cc3-c3ccccc3)cc2)CCC1 [MK-2206] + CC(C)C[C@H](NC(=O)[C@H](Cc1ccccc1)NC(=O)c1cnccn1)B(O)O [Bortezomib] (partner 0.002 µM)
In short: as §1

Pictilisib + Trametinib = compound: CS(=O)(=O)N1CCN(Cc2cc3nc(-c4cccc5[nH]ncc45)nc(N4CCOCC4)c3s2)CC1 [Pictilisib] + CC(=O)Nc1cccc(-n2c(=O)n(C3CC3)c(=O)c3c(Nc4ccc(I)cc4F)n(C)c(=O)c(C)c32)c1 [Trametinib] (partner 0.02 µM)
In short: as §1

Pictilisib + Pemetrexed = compound: CS(=O)(=O)N1CCN(Cc2cc3nc(-c4cccc5[nH]ncc45)nc(N4CCOCC4)c3s2)CC1 [Pictilisib] + Nc1nc2[nH]cc(CCc3ccc(C(=O)N[C@@H](CCC(=O)O)C(=O)O)cc3)c2c(=O)[nH]1 [Pemetrexed] (partner 0.2 µM)
In short: as §1

MK-2206 + Linsitinib = compound: NC1(c2ccc(-c3nc4ccn5c(=O)[nH]nc5c4cc3-c3ccccc3)cc2)CCC1 [MK-2206] + C[C@]1(O)C[C@@H](c2nc(-c3ccc4ccc(-c5ccccc5)nc4c3)c3c(N)nccn32)C1 [Linsitinib] (partner 1 µM)
In short: as §1

Row | Cell Line | relative viability (MK-2206 + Lapatinib; first compound 0.01 µM) | relative viability (MK-2206 + Lapatinib; first compound 0.03162 µM) | relative viability (MK-2206 + Lapatinib; first compound 0.3162 µM) | relative viability (MK-2206 + Lapatinib; first compound 1 µM) | relative viability (MK-2206 + Bortezomib; first compound 0.01 µM) | relative viability (MK-2206 + Bortezomib; first compound 0.03162 µM) | relative viability (MK-2206 + Bortezomib; first compound 0.3162 µM) | relative viability (MK-2206 + Bortezomib; first compound 1 µM) | relative viability (Pictilisib + Trametinib; first compound 0.02 µM) | relative viability (Pictilisib + Trametinib; first compound 0.06325 µM) | relative viability (Pictilisib + Trametinib; first compound 0.6325 µM) | relative viability (Pictilisib + Trametinib; first compound 2 µM) | relative viability (Pictilisib + Pemetrexed; first compound 0.02 µM) | relative viability (Pictilisib + Pemetrexed; first compound 0.06325 µM) | relative viability (Pictilisib + Pemetrexed; first compound 0.6325 µM) | relative viability (Pictilisib + Pemetrexed; first compound 2 µM) | relative viability (MK-2206 + Linsitinib; first compound 0.01 µM) | relative viability (MK-2206 + Linsitinib; first compound 0.03162 µM) | relative viability (MK-2206 + Linsitinib; first compound 0.3162 µM) | relative viability (MK-2206 + Linsitinib; first compound 1 µM)
1 | NCI-H1792 | 0.84 | 0.983 | 0.909 | 0.92 | 0.985 | 1 | 0.979 | 0.923 | 0.505 | 0.346 | 0.305 | 0.102 | 0.924 | 0.954 | 0.553 | 0.177 | 0.573 | 0.596 | 0.549 | 0.636
2 | A549 | 0.874 | 0.988 | 0.932 | 0.81 |  |  |  |  |  |  |  |  |  |  |  |  | 0.657 | 0.651 | 0.574 | 0.512
3 | NCI-H522 |  |  |  |  |  |  |  |  | 0.884 | 0.721 | 0.572 | 0.43 | 1.08 | 1.1 | 0.796 | 0.481 |  |  |  | 
4 | NCI-H1703 | 1.24 | 0.959 | 0.71 | 0.571 | 0.338 | 0.28 | 0.316 | 0.223 |  |  |  |  |  |  |  |  | 1.01 | 1.03 | 0.544 | 0.748
5 | NCI-H727 | 0.873 | 1.05 | 0.856 | 0.513 | 0.901 | 0.828 | 0.587 | 0.54 | 0.409 | 0.367 | 0.344 | 0.331 |  |  |  |  | 0.308 | 0.313 | 0.244 | 0.27
6 | IA-LM |  | 0.765 | 0.695 | 0.438 | 0.868 | 0.928 | 0.887 | 0.699 |  |  |  |  |  |  |  |  | 0.55 | 0.632 | 0.597 | 0.409
7 | SW 900 |  |  |  |  |  |  |  |  | 0.899 | 0.753 | 0.683 | 0.364 | 0.499 | 0.478 | 0.477 | 0.27 |  |  |  | 
8 | NCI-H1648 |  |  |  |  |  |  |  |  | 0.363 | 0.401 | 0.236 | 0.222 | 0.72 | 0.802 | 0.614 | 0.41 |  |  |  | 
9 | NCI-H358 | 0.47 | 0.41 | 0.394 | 0.376 |  |  |  |  | 0.132 | 0.141 | 0.122 | 0.104 | 0.172 | 0.165 | 0.161 | 0.133 | 0.79 | 0.707 | 0.542 | 0.602
10 | NCI-H1563 | 0.843 | 0.911 | 0.783 | 0.711 | 0.869 | 0.947 | 0.636 | 0.768 |  |  |  |  | 0.742 | 0.764 | 0.635 | 0.45 | 1.12 | 1.22 | 0.797 | 0.742
11 | LCLC-103H |  |  |  |  | 1.04 | 1.03 | 1.02 | 1.07 | 0.649 | 0.711 | 0.501 | 0.558 | 0.468 | 0.419 | 0.475 | 0.428 | 1.08 | 1.07 | 1 | 1.12
12 | LK-2 | 1.03 | 1.05 | 0.863 | 0.854 |  |  |  |  | 0.738 | 0.654 | 0.558 | 0.257 | 0.247 | 0.281 | 0.116 | 0.14 | 0.511 | 0.641 | 0.627 | 0.699
13 | NCI-H2342 |  |  |  |  |  |  |  |  | 0.77 | 0.747 | 0.724 | 0.476 | 0.695 | 0.782 | 0.677 | 0.528 |  |  |  | 
14 | ChaGo-K-1 |  |  |  |  | 1.09 | 0.993 | 0.924 | 0.763 | 0.813 | 0.873 | 0.79 | 0.631 | 0.265 | 0.268 | 0.231 | 0.237 |  |  |  | 
15 | NCI-H441 |  |  |  |  | 0.841 | 0.575 | 0.223 | 0.233 | 0.462 | 0.521 | 0.258 | 0.195 | 0.279 | 0.276 | 0.256 | 0.202 | 0.674 | 0.579 | 0.435 | 0.415
16 | NCI-H2170 | 0.312 | 0.276 | 0.263 | 0.258 |  |  |  |  | 0.864 | 0.916 | 0.784 | 0.587 | 0.268 | 0.273 | 0.249 | 0.228 |  |  |  | 
17 | Calu-6 | 1.05 | 1.13 | 1.09 | 0.974 | 0.991 | 1.08 | 1.01 | 1.15 |  |  |  |  |  |  |  |  |  | 0.961 | 0.963 | 0.926
18 | NCI-H1395 | 1.01 | 1.3 | 0.774 | 0.759 |  |  |  |  | 1.03 | 1.03 | 0.866 | 0.477 | 1.01 | 0.905 | 0.745 | 0.373 | 1.22 | 1.03 | 0.915 | 1.23
19 | NCI-H1793 | 0.616 | 0.742 | 0.745 | 0.617 |  |  |  |  | 0.397 | 0.448 | 0.332 | 0.211 | 0.828 | 0.754 | 0.522 | 0.276 | 0.81 | 0.886 | 0.641 | 0.675
20 | SK-MES-1 | 0.461 | 0.452 | 0.429 | 0.38 |  |  |  |  | 0.537 | 0.434 | 0.331 | 0.226 | 0.941 | 0.948 | 0.879 | 0.391 | 1.03 | 1.1 | 1.05 | 1.06
21 | NCI-H1299 | 0.963 | 0.946 | 1 | 1.02 | 1.04 | 1.02 | 1.09 | 1 |  |  |  |  |  |  |  |  | 0.947 | 1.08 | 0.977 | 0.965
22 | EBC-1 | 0.217 | 0.2 | 0.174 | 0.224 | 0.603 | 0.47 | 0.345 | 0.197 |  |  |  |  |  |  |  |  | 0.795 | 0.951 | 0.681 | 0.557
23 | NCI-H1944 | 0.829 | 0.849 | 0.823 | 0.904 |  |  |  |  | 0.451 | 0.349 | 0.337 | 0.183 | 0.649 | 0.487 | 0.469 | 0.287 | 1.27 | 1.17 | 1.15 | 1.17

From the supplement of paper PMC10307832
